Data: PubChem BioAssay (NCI)
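Test compounds were applied to cells in 96-well plates for 48 hours at 5 doses. At the TGI there is no net growth.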

What was measured:
Experiment in all cases: inhibition of tumour cell growth, NCI panel, 48 h
786-0 renal = tested on: 786-0 renal
A549 NSCLC = tested on: A549 NSCLC
ACHN renal = tested on: ACHN renal
CCRF-CEM leukemia = tested on: CCRF-CEM leukemia
COLO 205 colon = tested on: COLO 205 colon
DLD-1 colon = tested on: DLD-1 colon
DMS 114 small cell lung = tested on: DMS 114 small cell lung
DMS 273 small cell lung = tested on: DMS 273 small cell lung
EKVX NSCLC = tested on: EKVX NSCLC
HL-60(TB) leukemia = tested on: HL-60(TB) leukemia
HOP-18 NSCLC = tested on: HOP-18 NSCLC
HT29 colon = tested on: HT29 colon
IGROV1 ovarian = tested on: IGROV1 ovarian
K-562 leukemia = tested on: K-562 leukemia
KM12 colon = tested on: KM12 colon
LOX IMVI melanoma = tested on: LOX IMVI melanoma
M14 melanoma = tested on: M14 melanoma
M19-MEL melanoma = tested on: M19-MEL melanoma
MOLT-4 leukemia = tested on: MOLT-4 leukemia
NCI-H226 lung = tested on: NCI-H226 lung
NCI-H23 lung = tested on: NCI-H23 lung
OVCAR-3 ovarian = tested on: OVCAR-3 ovarian
OVCAR-4 ovarian = tested on: OVCAR-4 ovarian
OVCAR-5 ovarian = tested on: OVCAR-5 ovarian
OVCAR-8 ovarian = tested on: OVCAR-8 ovarian
RPMI-8226 leukemia = tested on: RPMI-8226 leukemia
RXF 393 renal = tested on: RXF 393 renal
RXF-631 renal = tested on: RXF-631 renal
SF-268 CNS = tested on: SF-268 CNS
SF-295 CNS = tested on: SF-295 CNS
SF-539 CNS = tested on: SF-539 CNS
SK-MEL-28 melanoma = tested on: SK-MEL-28 melanoma
SK-MEL-5 melanoma = tested on: SK-MEL-5 melanoma
SK-OV-3 ovarian = tested on: SK-OV-3 ovarian
SNB-19 CNS = tested on: SNB-19 CNS
SNB-75 CNS = tested on: SNB-75 CNS
SNB-78 CNS = tested on: SNB-78 CNS
SR leukemia = tested on: SR leukemia
SW-620 colon = tested on: SW-620 colon
TK-10 renal = tested on: TK-10 renal
U251 CNS = tested on: U251 CNS
UACC-62 melanoma = tested on: UACC-62 melanoma
UO-31 renal = tested on: UO-31 renal
A498 renal = tested on: A498 renal
CAKI-1 renal = tested on: CAKI-1 renal
HCC-2998 colon = tested on: HCC-2998 colon
HCT-116 colon = tested on: HCT-116 colon
HCT-15 colon = tested on: HCT-15 colon
HOP-62 NSCLC = tested on: HOP-62 NSCLC
HOP-92 NSCLC = tested on: HOP-92 NSCLC
KM20L2 colon = tested on: KM20L2 colon
LXFL 529 NSCLC = tested on: LXFL 529 NSCLC
MALME-3M melanoma = tested on: MALME-3M melanoma
NCI-H460 lung = tested on: NCI-H460 lung
NCI-H522 lung = tested on: NCI-H522 lung
SK-MEL-2 melanoma = tested on: SK-MEL-2 melanoma
SN12C renal = tested on: SN12C renal
UACC-257 melanoma = tested on: UACC-257 melanoma

Q: Which results are given for `O=C1C(c2ccccc2)=[N+]([O-])c2cc([N+](=O)[O-])c(/C(Cl)=C/c3ccccc3)cc21`?
A: TGI (786-0 renal): 82.9 µM; TGI (A549 NSCLC): > 100 µM; TGI (ACHN renal): 94.4 µM; TGI (CCRF-CEM leukemia): 40.3 µM; TGI (COLO 205 colon): 31 µM; TGI (DLD-1 colon): 45 µM; TGI (DMS 114 small cell lung): 22.9 µM; TGI (DMS 273 small cell lung): 37.2 µM; TGI (EKVX NSCLC): 78.9 µM; TGI (HL-60(TB) leukemia): 18.4 µM; TGI (HOP-18 NSCLC): 75.5 µM; TGI (HT29 colon): 58.2 µM; TGI (IGROV1 ovarian): 57.5 µM; TGI (K-562 leukemia): 37.7 µM; TGI (KM12 colon): 59.8 µM; TGI (LOX IMVI melanoma): 26.6 µM; TGI (M14 melanoma): 40.9 µM; TGI (M19-MEL melanoma): 28.9 µM; TGI (MOLT-4 leukemia): 49.2 µM; TGI (NCI-H226 lung): > 100 µM; TGI (NCI-H23 lung): 60.1 µM; TGI (OVCAR-3 ovarian): 27 µM; TGI (OVCAR-4 ovarian): 30.7 µM; TGI (OVCAR-5 ovarian): 59.1 µM; TGI (OVCAR-8 ovarian): 34.2 µM; TGI (RPMI-8226 leukemia): 42.5 µM; TGI (RXF 393 renal): 51.6 µM; TGI (RXF-631 renal): 21.4 µM; TGI (SF-268 CNS): > 100 µM; TGI (SF-295 CNS): > 100 µM; TGI (SF-539 CNS): 54.8 µM; TGI (SK-MEL-28 melanoma): 61 µM; TGI (SK-MEL-5 melanoma): 44.4 µM; TGI (SK-OV-3 ovarian): > 100 µM; TGI (SNB-19 CNS): > 100 µM; TGI (SNB-75 CNS): 62.8 µM; TGI (SNB-78 CNS): 96.9 µM; TGI (SR leukemia): 53 µM; TGI (SW-620 colon): 31.1 µM; TGI (TK-10 renal): 82.3 µM; TGI (U251 CNS): 39.7 µM; TGI (UACC-62 melanoma): 83.4 µM; TGI (UO-31 renal): > 100 µM

Q: How did the TGI (786-0 renal) turn out when `COc1cccc(CC(C)N)c1` (centres undefined) was run?
A: > 100 µM

Q: What about the TGI (A498 renal) of the same compound?
A: > 100 µM

Q: And the TGI (A549 NSCLC)?
A: > 100 µM

Q: And the TGI (ACHN renal)?
A: > 100 µM

Q: What about the TGI (CAKI-1 renal) of the same compound?
A: > 100 µM

Q: What about the TGI (CCRF-CEM leukemia) of the same compound?
A: > 100 µM

Q: What about the TGI (COLO 205 colon) of the same compound?
A: > 100 µM

Q: And the TGI (DLD-1 colon)?
A: > 100 µM

Q: And the TGI (DMS 114 small cell lung)?
A: > 100 µM

Q: What about the TGI (DMS 273 small cell lung) of the same compound?
A: > 100 µM

Q: And the TGI (EKVX NSCLC)?
A: > 100 µM

Q: And the TGI (HCC-2998 colon)?
A: > 100 µM

Q: What about the TGI (HCT-116 colon) of the same compound?
A: > 100 µM

Q: And the TGI (HCT-15 colon)?
A: > 100 µM

Q: What about the TGI (HL-60(TB) leukemia) of the same compound?
A: > 100 µM

Q: What about the TGI (HOP-18 NSCLC) of the same compound?
A: > 100 µM

Q: What about the TGI (HOP-62 NSCLC) of the same compound?
A: > 100 µM

Q: And the TGI (HOP-92 NSCLC)?
A: > 100 µM

Q: What about the TGI (HT29 colon) of the same compound?
A: > 100 µM

Q: And the TGI (IGROV1 ovarian)?
A: > 100 µM

Q: What about the TGI (K-562 leukemia) of the same compound?
A: > 100 µM

Q: What about the TGI (KM12 colon) of the same compound?
A: > 100 µM

Q: What about the TGI (KM20L2 colon) of the same compound?
A: > 100 µM

Q: And the TGI (LOX IMVI melanoma)?
A: > 100 µM

Q: What about the TGI (LXFL 529 NSCLC) of the same compound?
A: > 100 µM

Q: And the TGI (M14 melanoma)?
A: > 100 µM

Q: What about the TGI (MALME-3M melanoma) of the same compound?
A: > 100 µM

Q: And the TGI (MOLT-4 leukemia)?
A: > 100 µM

Q: And the TGI (NCI-H226 lung)?
A: > 100 µM

Q: What about the TGI (NCI-H23 lung) of the same compound?
A: > 100 µM

Q: And the TGI (NCI-H460 lung)?
A: > 100 µM

Q: And the TGI (NCI-H522 lung)?
A: > 100 µM

Q: And the TGI (OVCAR-3 ovarian)?
A: > 100 µM

Q: What about the TGI (OVCAR-4 ovarian) of the same compound?
A: > 100 µM

Q: And the TGI (OVCAR-5 ovarian)?
A: > 100 µM

Q: And the TGI (OVCAR-8 ovarian)?
A: > 100 µM

Q: And the TGI (RPMI-8226 leukemia)?
A: > 100 µM

Q: What about the TGI (RXF 393 renal) of the same compound?
A: > 100 µM

Q: And the TGI (RXF-631 renal)?
A: > 100 µM

Q: What about the TGI (SF-268 CNS) of the same compound?
A: > 100 µM

Q: What about the TGI (SF-295 CNS) of the same compound?
A: > 100 µM

Q: What about the TGI (SF-539 CNS) of the same compound?
A: > 100 µM

Q: What about the TGI (SK-MEL-2 melanoma) of the same compound?
A: > 100 µM

Q: What about the TGI (SK-MEL-28 melanoma) of the same compound?
A: > 100 µM

Q: What about the TGI (SK-MEL-5 melanoma) of the same compound?
A: > 100 µM

Q: What about the TGI (SK-OV-3 ovarian) of the same compound?
A: > 100 µM

Q: What about the TGI (SN12C renal) of the same compound?
A: > 100 µM

Q: And the TGI (SNB-19 CNS)?
A: > 100 µM

Q: What about the TGI (SNB-75 CNS) of the same compound?
A: > 100 µM

Q: And the TGI (SNB-78 CNS)?
A: > 100 µM

Q: And the TGI (SR leukemia)?
A: > 100 µM

Q: What about the TGI (SW-620 colon) of the same compound?
A: > 100 µM

Q: And the TGI (TK-10 renal)?
A: > 100 µM

Q: And the TGI (U251 CNS)?
A: > 100 µM

Q: What about the TGI (UACC-257 melanoma) of the same compound?
A: > 100 µM

Q: And the TGI (UACC-62 melanoma)?
A: > 100 µM

Q: What about the TGI (UO-31 renal) of the same compound?
A: > 100 µM

Q: What does the source list for `C/C(CC(=O)Nc1ccc(C)c(C)c1)=N\NC(N)=S`?
A: TGI (786-0 renal): > 100 µM; TGI (A549 NSCLC): > 100 µM; TGI (ACHN renal): > 100 µM; TGI (CCRF-CEM leukemia): > 100 µM; TGI (COLO 205 colon): > 100 µM; TGI (DLD-1 colon): > 100 µM; TGI (DMS 114 small cell lung): > 100 µM; TGI (DMS 273 small cell lung): > 100 µM; TGI (EKVX NSCLC): > 100 µM; TGI (HCC-2998 colon): > 100 µM; TGI (HCT-116 colon): > 100 µM; TGI (HL-60(TB) leukemia): > 100 µM; TGI (HOP-62 NSCLC): > 100 µM; TGI (HOP-92 NSCLC): > 100 µM; TGI (HT29 colon): > 100 µM; TGI (IGROV1 ovarian): > 100 µM; TGI (K-562 leukemia): > 100 µM; TGI (KM12 colon): > 100 µM; TGI (KM20L2 colon): > 100 µM; TGI (LOX IMVI melanoma): > 100 µM; TGI (LXFL 529 NSCLC): > 100 µM; TGI (M14 melanoma): > 100 µM; TGI (MALME-3M melanoma): > 100 µM; TGI (MOLT-4 leukemia): > 100 µM; TGI (NCI-H226 lung): > 100 µM; TGI (NCI-H23 lung): > 100 µM; TGI (NCI-H460 lung): > 100 µM; TGI (NCI-H522 lung): > 100 µM; TGI (OVCAR-3 ovarian): > 100 µM; TGI (OVCAR-5 ovarian): > 100 µM; TGI (OVCAR-8 ovarian): > 100 µM; TGI (RPMI-8226 leukemia): > 100 µM; TGI (RXF 393 renal): > 100 µM; TGI (RXF-631 renal): > 100 µM; TGI (SF-268 CNS): > 100 µM; TGI (SF-295 CNS): > 100 µM; TGI (SF-539 CNS): > 100 µM; TGI (SK-MEL-2 melanoma): > 100 µM; TGI (SK-MEL-28 melanoma): > 100 µM; TGI (SK-MEL-5 melanoma): > 100 µM; TGI (SK-OV-3 ovarian): > 100 µM; TGI (SNB-75 CNS): > 100 µM; TGI (SNB-78 CNS): > 100 µM; TGI (SW-620 colon): > 100 µM; TGI (TK-10 renal): > 100 µM; TGI (U251 CNS): > 100 µM; TGI (UACC-257 melanoma): > 100 µM; TGI (UACC-62 melanoma): > 100 µM; TGI (UO-31 renal): > 100 µM
